The values that follow come from patent US20040120938A1, “Ingestible compositions comprising antibacterial agents” (The University of Bath, priority 1998, published 2004).

Series [1] relates to E. coli. In words: Peroxynitrite scavenger and XO systems on bacterial growth curves in nutrient broth (Test 8(d)). The conditions noted are these: 100 μM with peroxynitrite 100 μM. The series is classed as cell-based. The procedure: E. coli were seeded into nutrient broth at 2.10^7 cell ml^−1 and incubated at 37° C. under atmospheric air conditions (that is, 21% oxygen saturation). Four separate test samples of volume 1 ml were prepared by addition at 1 hour of incubation as follows:
1 Peroxynitrite at concentration 100 μM.
2 Peroxynitrite at 100 μM and quercetin (peroxynitrite scavenger) at 100 μM.
3 Xanthine oxidase (53.2 μg) and xanthine at 100 μM.
4 Xanthine oxidase (53.2 μg) and NADH at 100 μM.
Corresponding controls were also prepared, and the growth curves generated over time determined by monitoring absorbance.

The test system of series [2] is E. coli. Briefly: Xanthine oxidase derived species on cell viability at a range of oxygen concentrations (Test 8(c)). The series is classed as cell-based. The procedure:
E. coli were cultured as described above. Aliquots were taken and incubated with a reaction system consisting of bovine Xanthine oxidase (XO) (53.2 μgml^−1), nicotinamide adenine dinucleotide in reduced form (NADH) (300 μM), sodium nitrite, (NaNO2) 1 mM and oxygen at a range of concentrations. Desired oxygen concentrations were generated by delivery into the system of a mixture of oxygen and nitrogen in appropriate proportions and determined using a Clark-type O2 electrode. This reaction was followed at 37° C. for 30 min with mixing before an aliquot was taken and plated onto agar and incubated in a warm room at 37° C. Viable cells formed colonies on the agar and were counted. Viable cell counts were performed in triplicate and the results expressed as a percentage viable count in each case related to a non enzyme control of the same oxygen concentration. […] The range of oxygen tensions used covers those in which XO has previously been considered to be active, namely superoxide generation (21% O2 saturation) and nitric oxide production (0% O2 saturation). A certain amount of killing is seen at both of these extremes as compared with control samples. However, it is only at an intermediate oxygen concentration that the greatest amount of killing is observed. […] Corresponding data obtained in respect of S. enteritidis indicated a peak killing oxygen concentration of 0% for that cell type.
Replacement of NADH in the above method by 100 μM hypoxanthine, with a sodium nitrite concentration of 2.5 μM led to slightly higher peak killing oxygen concentrations (6.4% for E. coli and 1.5% for S. enteritidis).

For another series, the system named is S. enteritidis. The description is as above. In kind it is cell-based.
Series [3] relates to nitric oxide (NO) release. Briefly: NO release from pure bovine xanthine oxidase with nitrite and NADH under hypoxia (Tests 1-3). The series is classed as biochemical. The procedure:
The production of nitric oxide in the following tests and examples was analysed using an ozone chemiluminescence assay in a continuous flow apparatus (Sievers NOA 280) that allows the real time analysis of NO production. The apparatus was modified to allow a constant stream of nitrogen to flow into the reaction chamber. Chemiluminescence data were collected by a data acquisition system; the mean NO produced in parts per billion (ppb) was calculated from readings taken every second and shown as ppb or mV.
Progress curves, of molar production of NO against time, were calculated by taking into account the gas flow and the mean level of NO. Molar production of NO was expressed as ppb/sec or mV/sec. Reactions were carried out in a final volume of 1 ml at 37° C. in an atmosphere of <1% oxygen (Stathkelvin combination needle oxygen electrode, Diamond General Corp.).
The release of nitric oxide (NO) from a composition including pure bovine xanthine oxidase under hypoxia conditions was studied. The samples studied comprised reduced β-Nicotinamide adenine dinucleotide (NADH) and nitrite (NO2^−) and pure bovine xanthine oxidase.
Bovine xanthine oxidase was diluted with PBS as indicated in Table 1 below to give 300 μl of enzyme mixture. The enzyme mixture (300 μl) was mixed with 700 μl of a substrate mixture to give an assay volume of 1 ml. The substrate mixture comprised nitrite which was added to the assay to give a concentration of 1 mM and NADH which was added to give a concentration of 0.3 mM. Where, for example in Tests 2 to 4 below, additional components are added to the sample, the amount of PBS is adjusted accordingly to give an assay volume of 1 ml. The sample was placed in the reaction vessel of the NO determination apparatus under a nitrogen atmosphere and the generation of NO was measured and the results calculated as a steady state rate in mV/s.
Using the method described above in respect of Test 1, the effect of the variation in the concentration of NADH on the production of NO was investigated. 4 mM NADH was diluted with PBS to give the relevant concentration.
Using the method described above in respect of Test 1, the effect of the variation in the concentration of nitrite on the production of NO was investigated. As for Test 1, the concentration of NADH was 0.3 mM. 1M nitrite (or 100 mM nitrite, where appropriate for low concentrations) was diluted with PBS to give the relevant concentration.

Series [4] deals with Staphylococcus aureus 6751. Briefly: Bacterial growth rate by optical density, 96 well plate (Tests 8(f), 8(g)). The following applies: Staphylococcus; hypoxanthine 100 μM, range of XO concentrations. In kind it is cell-based. On the procedure: Bacteria were seeded into nutrient broth (NB) and grown over night at 37° C. The culture was then counted and normalised to give a final cell concentration of 1.8×10^7 cells well^−1 into the wells of a 96 well plate in fresh nutrient broth. The optical density of each well was monitored every 15 minutes as a measure of the growth rate of each bacterial species. Growth curves were generated for each species and the maximal rate of growth (logarithmic phase) was measured. Cells were treated to a range of experimental conditions in which the growth rate of cells was related to a control of untreated cells. The results were expressed as a percentage of the growth rate of the control cells.
(i) At a fixed concentration of hypoxanthine (100 μM) a range of purified XO protein concentrations were added at time 0 minutes. The optical density was followed and the growth rate calculated.
(ii) The growth rate was also measured in relation to the concentration of hypoxanthine, using 30 μg of XO with cells seeded as described above.
(iv) The effect of XO hypoxanthine addition was measured on the growth rate of a range of bacterial species with 30 […] XO at varying hypoxanthine concentrations using cells seeded as described above.

For the molecule `O=c1c(O)c(-c2ccc(O)c(O)c2)oc2cc(O)cc(O)c12` [quercetin], in the series on E. coli [1], the “effect on peroxynitrite killing” value is recorded as “clear effect in reducing killing”.

Consider `O=c1[nH]c(=O)c2[nH]cnc2[nH]1` [xanthine], for which, in the series with E. coli [2] (XO system, cell type not specified), the “killing using xanthine instead of hypoxanthine” value is recorded as “More limited killing”.

Turning to xanthine oxidoreductase [XOR], the “killing above about 8% oxygen” value in the series with S. enteritidis and in the series on E. coli [2] (E. coli) was “little or no killing” throughout. Moreover, in the series with S. enteritidis (XO, NADH, NaNO2), the “peak killing oxygen concentration” value is given as 0%. In addition, the killing entry in the series on S. enteritidis (oxygen concentration about 21%) is on record as “about 10%”; in the series on E. coli [2] (E. coli, oxygen concentration about 21%), “about 5%”. Further, the “oxygen concentration of most effective killing” value in the series with E. coli [2] (E. coli, XO 53.2 μg/ml, NADH 300 μM, NaNO2 1 mM, 37° C., 30 min) is “approximately 3 % of saturation”. Moreover, the NO release is given as 0.00 mV/s in series [3] (XOR 21.4 μg, nitrite 0 mM, NADH 0.3 mM); 53.75 mV/s in series [3] (XOR 21.4 μg, nitrite 1 mM, NADH 0.3 mM); 184.8 mV/s in series [3] (XOR 21.4 μg, nitrite 5 mM, NADH 0.3 mM); 378.10 mV/s in series [3] (XOR 21.4 μg, nitrite 10 mM, NADH 0.3 mM); 407.55 mV/s in series [3] (XOR 21.4 μg, nitrite 25 mM, NADH 0.3 mM); 474.05 mV/s in series [3] (XOR 21.4 μg, nitrite 50 mM, NADH 0.3 mM). Further, the NO release in series [3] (XOR 53.5 μg, NADH 0.00 mM) turned out to be 0.00 mV/s; in series [3] (XOR 53.5 μg, NADH 0.10 mM), 30.45 mV/s; in series [3] (XOR 53.5 μg, NADH 0.25 mM), 66.80 mV/s; in series [3] (XOR 53.5 μg, NADH 0.50 mM), 92.55 mV/s; in series [3] (XOR 53.5 μg, NADH 1.00 mM) it was 103.35 mV/s; in series [3] (XOR 53.5 μg, NADH 2.00 mM), 109.20 mV/s. In addition, the NO release came out at 0.00 mV/s in series [3] (XOR 107.0 μg, NADH 0.00 mM); 74.45 mV/s in series [3] (XOR 107.0 μg, NADH 0.10 mM); 142.70 mV/s in series [3] (XOR 107.0 μg, NADH 0.25 mM); 192.65 mV/s in series [3] (XOR 107.0 μg, NADH 0.50 mM); 230.05 mV/s in series [3] (XOR 107.0 μg, NADH 1.00 mM); 264.65 mV/s in series [3] (XOR 107.0 μg, NADH 2.00 mM). Besides, the NO release in series [3] (XOR protein in assay 21.4 μg, 1 mM nitrite, 0.3 mM NADH) is given as 50.05 mV/s; in series [3] (XOR protein in assay 53.5 μg, 1 mM nitrite, 0.3 mM NADH), 76.35 mV/s; in series [3] (XOR protein in assay 107.0 μg, 1 mM nitrite, 0.3 mM NADH), 128.55 mV/s; in series [3] (XOR protein in assay 160.5 μg, 1 mM nitrite, 0.3 mM NADH) it was 187.20 mV/s; in series [3] (XOR protein in assay 214.0 μg, 1 mM nitrite, 0.3 mM NADH) it was 225.75 mV/s. For the same molecule, the “optimum pH for the production of NO under the hypoxic conditions” value in series [3] (hypoxic conditions) is ~5.5. Moreover, in series [4], the growth inhibition result is on record as “less marked growth inhibition”.
